In patent US10710994B2, “Oxadiazole transient receptor potential channel inhibitors” (Genentech, Inc., priority 2018, dated 2020) one finds IC50 data, which are given here for 25 molecules.

The target of this experiment is human TRPA1 channel (Homo sapiens (Human), UniProt O75762). As to the kind of experiment: hTRPA1 CHO Ca2+ FLIPR Tetra assay: block of cinnamaldehyde induced calcium influx. Conditions: CHO cells expressing TRPA1, Hill coefficient fixed to 1.5. It is filed as cell-based. In a few lines:
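TRPA1-expressing CHO cells loaded with calcium indicator dye (1 h 37° C, then 15 min room temperature) in HBSS/20 mM HEPES pH 7.4/0.02% BSA. IC50 from fits with fixed Hill coefficient.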

Setting [1] is: read-out: hTRPA1 IC50 10 min, 10 minutes incubation with compound before cinnamaldehyde (about EC80).
Where [2] appears, read: read-out: hTRPA1 IC50 90 min, 90 minutes incubation with compound before cinnamaldehyde (about EC80).

Where two headings read alike, the source gives them in different places.

Sequence of human TRPA1 channel (O75762 whole entry): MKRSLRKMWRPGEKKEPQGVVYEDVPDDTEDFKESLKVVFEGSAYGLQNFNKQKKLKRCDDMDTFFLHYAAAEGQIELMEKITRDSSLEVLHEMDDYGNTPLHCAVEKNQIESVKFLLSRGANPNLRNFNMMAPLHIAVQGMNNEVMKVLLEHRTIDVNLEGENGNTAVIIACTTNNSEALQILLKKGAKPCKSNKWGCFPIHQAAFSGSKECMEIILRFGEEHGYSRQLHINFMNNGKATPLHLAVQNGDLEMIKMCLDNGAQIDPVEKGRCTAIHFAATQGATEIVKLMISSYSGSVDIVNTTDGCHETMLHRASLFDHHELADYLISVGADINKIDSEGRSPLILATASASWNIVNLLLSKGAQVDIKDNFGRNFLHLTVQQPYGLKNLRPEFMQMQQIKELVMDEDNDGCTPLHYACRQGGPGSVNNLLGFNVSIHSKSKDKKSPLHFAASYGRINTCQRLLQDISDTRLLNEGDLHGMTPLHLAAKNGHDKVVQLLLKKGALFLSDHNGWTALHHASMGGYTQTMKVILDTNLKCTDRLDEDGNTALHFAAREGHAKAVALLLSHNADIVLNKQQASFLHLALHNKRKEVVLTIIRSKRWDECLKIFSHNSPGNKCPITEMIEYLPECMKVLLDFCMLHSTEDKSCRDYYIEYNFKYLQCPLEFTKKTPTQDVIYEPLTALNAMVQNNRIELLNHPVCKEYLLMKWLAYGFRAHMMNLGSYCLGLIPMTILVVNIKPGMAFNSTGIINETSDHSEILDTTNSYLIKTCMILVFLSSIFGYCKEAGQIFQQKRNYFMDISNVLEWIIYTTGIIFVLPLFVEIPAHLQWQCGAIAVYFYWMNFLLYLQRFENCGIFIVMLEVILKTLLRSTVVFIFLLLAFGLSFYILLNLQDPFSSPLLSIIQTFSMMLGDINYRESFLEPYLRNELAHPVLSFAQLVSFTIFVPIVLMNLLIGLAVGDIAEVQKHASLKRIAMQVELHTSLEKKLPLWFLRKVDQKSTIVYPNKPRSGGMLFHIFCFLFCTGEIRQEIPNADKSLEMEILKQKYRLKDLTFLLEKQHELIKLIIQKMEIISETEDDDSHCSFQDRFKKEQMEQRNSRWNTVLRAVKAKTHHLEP

Usually IC50 stands for the concentration that gives 50% inhibition. On to `Cc1c(=O)ncn2cnn(Cc3nc([C@@H]4CO[C@@H](c5ccc(Cl)cc5)C4)no3)c(=O)c12` [Example 47, 2-((3-((3R,5R)-5-(4-chlorophenyl)tetra-hydrofuran-3-yl)-1,2,4-oxadiazol-5-yl)methyl)-9-methyl-2H-pyrimido[1,6-d][1,2,4] triazine-1,8-dione], for which the IC50 is 332 nM under setting [1] and 240 nM under setting [2].

As for `Cc1cnn2ncn(Cc3nc([C@@H]4CO[C@@H](c5ccc(Cl)cc5)C4)no3)c(=O)c12` [Example 48, 3-((3-((3R,5R)-5-(4-chlorophenyl)tetra-hydrofuran-3-yl)-1,2,4-oxadiazol-5-yl)methyl)-5-methylpyrazolo[5,1-f][1,2,4]triazin-4(3H)-one], the concentration for half-maximal inhibition (IC50) is, setting by setting: under setting [1], 1.2 nM; under setting [2], 0.8 nM.

With `Cc1ccc(=O)n2ccn(Cc3nc([C@@H]4CO[C@@H](c5ccc(Cl)cc5)C4)no3)c(=O)c12` [Example 49, 2-((3-((3R,5R)-5-(4-chlorophenyl)tetrahydro-furan-3-yl)-1,2,4-oxadiazol-5-yl)methyl)-9-methyl-2H-pyrido[1,2-a]pyrazine-1,6-dione], the 50% inhibitory concentration (IC50) under setting [2] was 4.3 nM.

As for `Cn1c(=O)c2c(ncn2Cc2nc([C@@H]3CO[C@@H](c4ccc(Cl)cc4)C3)no2)n(C)c1=O` [Example 50, 7-((3-((3R,5R)-5-(4-chlorophenyl)tetrahydro-furan-3-yl)-1,2,4-oxadiazol-5-yl)methyl)-1,3-dimethyl-3,7-dihydro-1H-purine-2,6-dione], the 50% inhibitory concentration (IC50) was determined as 50.8 nM under setting [1] and 57 nM under setting [2].

Turning to `Cn1c(NCc2ccccn2)nc2ncn(Cc3nc([C@@H]4CO[C@@H](c5ccc(Cl)cc5)C4)no3)c(=O)c21` [Example 51], the IC50 reads like this: under setting [1], 40.1 nM; under setting [2], 29 nM.

As to `COc1nccc2c(=O)n(Cc3nc([C@@H]4CO[C@@H](c5ccc(Cl)cc5)C4)no3)cnc12` [Example 52, 3-((3-((3R,5R)-5-(4-chlorophenyl)tetrahydro-furan-3-yl)-1,2,4-oxadiazol-5-yl)methyl)-8-methoxypyrido[3,4-d]pyrimidin-4(3H)-one], the IC50 is 95.1 nM under setting [1] and 140 nM under setting [2].

Consider `Cn1cnc2ncn(Cc3nc([C@@H]4CO[C@@H](c5ccc6ncsc6c5)C4)no3)c(=O)c21` [Example 53, 1-((3-((3R,5R)-5-(benzo[d]thiazol-6-yl)tetrahydrofuran-3-yl)-1,2,4-oxadiazol-5-yl)methyl)-7-methyl-1,7-dihydro-6H-purin-6-one], for which the IC50 reads like this: under setting [1], 146 nM; under setting [2], 88 nM.

With `Cc1ccnc2ncn(Cc3nc([C@@H]4CO[C@@H](c5ccc(Cl)cc5)C4)no3)c(=O)c12` [Example 54, 3-((3-((3R,5R)-5-(4-chlorophenyl)tetrahydro-furan-3-yl)-1,2,4-oxadiazol-5-yl)methyl)-5-methylpyrido[2,3-d] pyrimidin-4(3H)-one], the IC50 runs as follows: under setting [1], 2.14 nM; under setting [2], 0.73 nM.

As for `Cn1cnc2ncn(Cc3nc([C@@H]4CO[C@@H](c5ccc(Cl)cc5)C4)no3)c2c1=O` [Example 55, 7-((3-((3R,5R)-5-(4-chlorophenyl)tetrahydro-furan-3-yl)-1,2,4-oxadiazol-5-yl)methyl)-1-methyl-1,7-dihydro-6H-purin-6-one], the concentration for half-maximal inhibition (IC50) was found to be 19 nM under setting [1] and 12 nM under setting [2].

Take `Cn1cnc2ccn(Cc3nc([C@@H]4CO[C@@H](c5ccc(F)cc5)C4)no3)c(=O)c21` [Example 56, 5-((3-((3R,5R)-5-(4-fluorophenyl)tetrahydro-furan-3-yl)-1,2,4-oxadiazol-5-yl)methyl)-3-methyl-3,5-dihydro-4H-imidazo[4,5-c]pyridin-4-one]: the half-inhibitory concentration (IC50) is, setting by setting: under setting [1], 6.76 nM; under setting [2], 1.9 nM.

In the case of `Cn1cnc2cnn(Cc3nc([C@@H]4CO[C@@H](c5ccc(Cl)cc5)C4)no3)c(=O)c21` [Example 57, 5-((3-((3R,5R)-5-(4-chlorophenyl)tetrahydro-furan-3-yl)-1,2,4-oxadiazol-5-yl)methyl)-3-methyl-3,5-dihydro-4H-imidazo[4,5-d] pyridazin-4-one], the IC50 is, setting by setting: under setting [1], 38.8 nM; under setting [2], 18 nM.

With `Cc1ccnc2ncn(Cc3nc([C@@H]4CO[C@@H](c5ccc(Cl)cc5)C4)no3)c(=O)c12` [Example 58, 3-((3-((3R,5R)-5-(4-chlorophenyl)tetrahydro-furan-3-yl)-1,2,4-oxadiazol-5-yl)methyl)-5-methylpyrido[2,3-d] pyrimidin-4(3H)-one], the half-maximal inhibitory concentration (IC50) under setting [1] was 69 nM and the 50% inhibitory concentration (IC50) under setting [2] worked out at 52 nM.

For `Cn1cnc2ncn(Cc3nc([C@@H]4CO[C@@H](c5ccc(Cl)cc5)C4)no3)c(=S)c21` [Example 59, 1-((3-((3R,5R)-5-(4-chlorophenyl)tetrahydro-furan-3-yl)-1,2,4-oxadiazol-5-yl)methyl)-7-methyl-1,7-dihydro-6H-purine-6-thione], the concentration for half-maximal inhibition (IC50) is, setting by setting: under setting [1], 4.16 nM; under setting [2], 3 nM.

As for `Nc1ccc2c(=O)n(Cc3nc([C@@H]4CO[C@@H](c5ccc(F)cc5)C4)no3)cnc2n1` [Example 60, 7-amino-3-((3-((3R,5R)-5-(4-fluorophenyl)tetrahydrofuran-3-yl)-1,2,4-oxadiazol-5-yl)methyl)pyrido[2,3-d] pyrimidin-4(3H)-one], the half-maximal inhibitory concentration (IC50) stood at 15.6 nM under setting [1] and 12 nM under setting [2].

In the case of `Cn1nnc2ccn(Cc3nc([C@@H]4CO[C@@H](c5ccc(Cl)cc5)C4)no3)c(=O)c21` [Example 61, 5-((3-((3R,5R)-5-(4-chlorophenyl)tetrahydro-furan-3-yl)-1,2,4-oxadiazol-5-yl)methyl)-3-methyl-3,5-dihydro-4H-[1,2,3]triazolo[4,5-c]pyridin-4-one], the 50% inhibitory concentration (IC50) reads like this: under setting [1], 4.65 nM; under setting [2], 2.1 nM.

On to `Nc1nc2ncccc2c(=O)n1Cc1nc([C@@H]2CO[C@@H](c3ccc(Cl)cc3)C2)no1` [Example 62, 2-amino-3-((3-((3R,5R)-5-(4-chlorophenyl)tetrahydrofuran-3-yl)-1,2,4-oxadiazol-5-yl)methyl)pyrido[2,3-d] pyrimidin-4(3H)-one], for which the IC50 runs as follows: under setting [1], 8.29 nM; under setting [2], 2.7 nM.

Regarding `Cc1cc(=O)nc2ccn(Cc3nc([C@@H]4CO[C@@H](c5ccc(Cl)cc5)C4)no3)c(=O)n12` [Example 63], the IC50 under setting [1] was found to be 9.26 nM and the IC50 under setting [2] turned out to be 2.8 nM.

With `Cc1ncn2ncn(Cc3nc([C@@H]4CO[C@@H](c5ccc(Cl)cc5)C4)no3)c(=O)c12` [Example 64, 3-((3-((3R,5R)-5-(4-chlorophenyl)tetrahydro-furan-3-yl)-1,2,4-oxadiazol-5-yl)methyl)-5-methylimidazo[1,5-f] [1,2,4]triazin-4(3H)-one], the IC50 is, setting by setting: under setting [1], 20.6 nM; under setting [2], 15 nM.

Regarding `COc1ccc([C@H]2C[C@H](c3noc(Cn4cnc5ncn(C)c5c4=O)n3)CO2)cc1` [Example 65, 1-((3-((3R,5R)-5-(4-methoxyphenyl)tetrahydrofuran-3-yl)-1,2,4-oxadiazol-5-yl)methyl)-7-methyl-1,7-dihydro-6H-purin-6-one], the IC50 (hTRPA1 IC50 10 min, 10 minutes incubation with compound before cinnamaldehyde (about EC80)) was 137 nM and the IC50 (hTRPA1 IC50 90 min, 90 minutes incubation with compound before cinnamaldehyde (about EC80)) came to 67 nM.

For the molecule `Cc1cnn2ncn(Cc3nc([C@@H]4CO[C@@H](c5ccc(F)cc5)C4)no3)c(=O)c12` [Example 66, 3-((3-((3R,5R)-5-(4-fluorophenyl)tetrahydro-furan-3-yl)-1,2,4-oxadiazol-5-yl)methyl)-5-methylpyrazolo[5,1-f] [1,2,4]triazin-4(3H)-one], the IC50 by setting is: under setting [1], 8.47 nM; under setting [2], 1.6 nM.

With `Cc1cncc2ncn(Cc3nc([C@@H]4CO[C@@H](c5ccc(F)cc5)C4)no3)c(=O)c12` [Example 67, 3-((3-((3R,5R)-5-(4-fluorophenyl)tetrahydro-furan-3-yl)-1,2,4-oxadiazol-5-yl)methyl)-5-methylpyrido[3,4-d] pyrimidin-4(3H)-one], the IC50 reads like this: under setting [1], 10.7 nM; under setting [2], 1.2 nM.

On to `Cn1cnc2ncn(Cc3nc([C@@H]4CO[C@@H](c5ccc(C6CC6)cc5)C4)no3)c(=O)c21` [Example 68, 1-((3-((3R,5R)-5-(4-cyclopropylphenyl)tetrahydrofuran-3-yl)-1,2,4-oxadiazol-5-yl)methyl)-7-methyl-1,7-dihydro-6H-purin-6-one], for which the IC50 came out at 46 nM under setting [1] and 27 nM under setting [2].

Regarding `Cn1cnc2ncn(Cc3nc([C@@H]4CO[C@@H](c5ccc(F)cc5)C4)no3)c2c1=O` [Example 69, 7-((3-((3R,5R)-5-(4-fluorophenyl)tetrahydro-furan-3-yl)-1,2,4-oxadiazol-5-yl)methyl)-1-methyl-1,7-dihydro-6H-purin-6-one], the 50% inhibitory concentration (IC50) is, setting by setting: under setting [1], 59.5 nM; under setting [2], 34 nM.

As for `Cn1cnc2nc(N)n(Cc3nc([C@@H]4CO[C@@H](c5ccc(Cl)cc5)C4)no3)c(=O)c21` [Example 71, 2-amino-1-((3-((3R,5R)-5-(4-chlorophenyl)tetrahydrofuran-3-yl)-1,2,4-oxadiazol-5-yl)methyl)-7-methyl-1,7-dihydro-6H-purin-6-one], the half-maximal inhibitory concentration (IC50) was 18.4 nM under setting [1] and 1.5 nM under setting [2].

Regarding `O=c1c2c(ncn1Cc1nc([C@@H]3CO[C@@H](c4ccc(Cl)cc4)C3)no1)CNCC2` [Example 73, 3-((3-((3R,5R)-5-(4-chlorophenyl)tetrahydro-furan-3-yl)-1,2,4-oxadiazol-5-yl)methyl)-5,6,7,8-tetrahydropyrido [3,4-d]pyrimidin-4(3H)-one], the IC50 under setting [2] worked out at 22 nM.
